Legend:
[1] = system: ENR+CD organoids; assay: Primary screen: ATP (CellTiter-Glo 3D, CTG) cell number/viability, 2.5-D 384-well ENR+CD organoids; conditions: primary screen; for Z.CTG: standard z score;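 as to all read-outs here: compounds given at plating and again on day 3 over a 6-day differentiation from ENR+CV stem-cell-enriched precursors, ATP measured on day 6, plate median as control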
[2] = system: ENR+CD organoids (ISC to Paneth cell differentiation); assay: Primary screen: CCh-stimulated lysozyme secretion LYZ.S, 2.5-D 384-well ENR+CD organoid differentiation; format: cell-based, mouse; conditions: primary screen
Excerpt: (§1) High-throughput screening.

[3] = system: ENR+CD organoids (ISC to Paneth cell differentiation); assay: Primary screen: basal (non-stimulated) lysozyme secretion LYZ.NS, 2.5-D 384-well ENR+CD organoid differentiation; format: cell-based, mouse; conditions: primary screen; for Z.LYZ.NS: standard z score
Excerpt: as §1

[4] = dose 0.08 uM, FC relative to plate median
[5] = dose 0.40 uM, FC relative to plate median
[6] = dose 2.00 uM, FC relative to plate median
[7] = dose 10.00 uM, FC relative to plate median
[8] = dose 0.08 uM, FC vs plate median
[9] = dose 0.40 uM, FC vs plate median
[10] = dose 2.00 uM, FC vs plate median
[11] = dose 10.00 uM, FC vs plate median

Molecule `Cc1cc2c(cc1CC(=O)c1sccc1S(=O)(=O)Nc1onc(C)c1Cl)OCO2` [Sitaxentan sodium] has a Dose.FC.CTG [1, 4] of 0.095 log2 fold change, a Dose.FC.CTG [1, 5] of −0.200 log2 fold change and a Dose.FC.CTG [1, 6] of −0.096 log2 fold change. For the same molecule, the Dose.FC.CTG [1, 7] was −0.100 log2 fold change, the Dose.FC.LYZ.S [2, 4] was −0.017 log2 fold change and the Dose.FC.LYZ.S [2, 5] was −0.028 log2 fold change. The Dose.FC.LYZ.S [2, 6] was 0.136 log2 fold change, the Dose.FC.LYZ.S [2, 7] was −0.047 log2 fold change and the Dose.FC.LYZ.NS [3, 4] was 0.094 log2 fold change. The Z.LYZ.NS ([3]; dose 0.08 uM) was 0.816, the Dose.FC.LYZ.NS [3, 5] was −0.052 log2 fold change and the Z.LYZ.NS ([3]; dose 0.40 uM) was −0.455. The Dose.FC.LYZ.NS [3, 6] was 0.090 log2 fold change, the Z.LYZ.NS ([3]; dose 2.00 uM) was 0.782 and the Dose.FC.LYZ.NS [3, 7] was −0.038 log2 fold change. It also gave a Z.LYZ.NS ([3]; dose 10.00 uM) of −0.332.
`CCOC(=O)C1=C(COCCN)NC(C)=C(C(=O)OC)C1c1ccccc1Cl` (centres unmarked) [Amlodipine] was tested, and the Dose.FC.CTG ([1]; dose 0.08 uM) was −0.351 log2 fold change, the Dose.FC.CTG ([1]; dose 0.40 uM) was −0.363 log2 fold change and the Dose.FC.CTG ([1]; dose 2.00 uM) was −0.372 log2 fold change. The Dose.FC.CTG ([1]; dose 10.00 uM) was −0.421 log2 fold change, the Dose.FC.LYZ.S ([2]; dose 0.08 uM) was −0.042 log2 fold change and the Dose.FC.LYZ.S ([2]; dose 0.40 uM) was −0.015 log2 fold change. The Dose.FC.LYZ.S ([2]; dose 2.00 uM) was −0.122 log2 fold change, the Dose.FC.LYZ.S ([2]; dose 10.00 uM) was −0.155 log2 fold change and the Dose.FC.LYZ.NS ([3]; dose 0.08 uM) was 0.026 log2 fold change. The “Z.LYZ.NS (standard z score)” value ([3]; dose 0.08 uM) was 0.228, the Dose.FC.LYZ.NS ([3]; dose 0.40 uM) was 0.024 log2 fold change and the “Z.LYZ.NS (standard z score)” value ([3]; dose 0.40 uM) was 0.210. The Dose.FC.LYZ.NS ([3]; dose 2.00 uM) was −0.065 log2 fold change, the “Z.LYZ.NS (standard z score)” value ([3]; dose 2.00 uM) was −0.568 and the Dose.FC.LYZ.NS ([3]; dose 10.00 uM) was −0.135 log2 fold change. The “Z.LYZ.NS (standard z score)” value ([3]; dose 10.00 uM) was −1.172.
`CS(=O)(=O)c1cccc(CNc2nc(Nc3ccc4c(c3)CCC(=O)N4)ncc2C(F)(F)F)c1` [PF-573228] showed a Z.CTG ([1]; dose 0.08 uM) of 0.183, a Z.CTG ([1]; dose 0.40 uM) of −0.129 and a Z.CTG ([1]; dose 2.00 uM) of −1.037. It also gave a Z.CTG ([1]; dose 10.00 uM) of −1.188, a Dose.FC.CTG [1, 8] of 0.077 log2 fold change and a Dose.FC.CTG [1, 9] of −0.054 log2 fold change. It also gave a Dose.FC.CTG [1, 10] of −0.434 log2 fold change, a Dose.FC.CTG [1, 11] of −0.497 log2 fold change and a Dose.FC.LYZ.S [2, 8] of 0.114 log2 fold change. It also gave a Dose.FC.LYZ.S [2, 9] of 0.002 log2 fold change, a Dose.FC.LYZ.S [2, 10] of −0.174 log2 fold change and a Dose.FC.LYZ.S [2, 11] of −0.305 log2 fold change. The Z.LYZ.NS ([3]; dose 0.08 uM) was 0.089, the Z.LYZ.NS ([3]; dose 0.40 uM) was −0.401 and the Z.LYZ.NS ([3]; dose 2.00 uM) was −0.502. For the same molecule, the Z.LYZ.NS ([3]; dose 10.00 uM) was −2.180, the Dose.FC.LYZ.NS [3, 8] was 0.010 log2 fold change and the Dose.FC.LYZ.NS [3, 9] was −0.046 log2 fold change. It also gave a Dose.FC.LYZ.NS [3, 10] of −0.058 log2 fold change and a Dose.FC.LYZ.NS [3, 11] of −0.250 log2 fold change.
For `O=S(=O)(c1ccccc1)c1cnc2c(N3CCNCC3)cccc2c1` [SB742457], the Dose.FC.CTG [1, 4] was −0.290 log2 fold change, the Z.CTG ([1]; dose 0.08 uM) was −0.693 and the Dose.FC.CTG [1, 5] was −0.126 log2 fold change. It also gave a Z.CTG ([1]; dose 0.40 uM) of −0.300, a Dose.FC.CTG [1, 6] of −0.177 log2 fold change and a Z.CTG ([1]; dose 2.00 uM) of −0.423. For the same molecule, the Dose.FC.CTG [1, 7] was −0.294 log2 fold change, the Z.CTG ([1]; dose 10.00 uM) was −0.702 and the Dose.FC.LYZ.S [2, 4] was −0.055 log2 fold change. The Dose.FC.LYZ.S [2, 5] was −0.029 log2 fold change, the Dose.FC.LYZ.S [2, 6] was −0.003 log2 fold change and the Dose.FC.LYZ.S [2, 7] was −0.006 log2 fold change. For the same molecule, the Dose.FC.LYZ.NS [3, 4] was 0.012 log2 fold change, the Z.LYZ.NS ([3]; dose 0.08 uM) was 0.108 and the Dose.FC.LYZ.NS [3, 5] was −0.062 log2 fold change. The Z.LYZ.NS ([3]; dose 0.40 uM) was −0.537, the Dose.FC.LYZ.NS [3, 6] was 0.069 log2 fold change and the Z.LYZ.NS ([3]; dose 2.00 uM) was 0.598. It also gave a Dose.FC.LYZ.NS [3, 7] of 0.013 log2 fold change and a Z.LYZ.NS ([3]; dose 10.00 uM) of 0.115.
In the case of `NC(=O)Nc1cc(-c2cccc(F)c2)sc1C(=O)N[C@H]1CCCNC1` [AZD7762], the Dose.FC.CTG ([1]; dose 0.08 uM) was 0.054 log2 fold change, the “Z.CTG (standard z score)” value ([1]; dose 0.08 uM) was 0.129 and the Dose.FC.CTG ([1]; dose 0.40 uM) was −0.384 log2 fold change. The “Z.CTG (standard z score)” value ([1]; dose 0.40 uM) was −0.917, the Dose.FC.CTG ([1]; dose 2.00 uM) was −0.804 log2 fold change and the “Z.CTG (standard z score)” value ([1]; dose 2.00 uM) was −1.920. For the same molecule, the Dose.FC.CTG ([1]; dose 10.00 uM) was −1.361 log2 fold change, the “Z.CTG (standard z score)” value ([1]; dose 10.00 uM) was −3.251 and the Dose.FC.LYZ.S ([2]; dose 0.08 uM) was 0.019 log2 fold change. For the same molecule, the Dose.FC.LYZ.S ([2]; dose 0.40 uM) was −0.251 log2 fold change, the Dose.FC.LYZ.S ([2]; dose 2.00 uM) was −0.342 log2 fold change and the Dose.FC.LYZ.S ([2]; dose 10.00 uM) was −0.369 log2 fold change. The Dose.FC.LYZ.NS ([3]; dose 0.08 uM) was 0.010 log2 fold change, the “Z.LYZ.NS (standard z score)” value ([3]; dose 0.08 uM) was 0.084 and the Dose.FC.LYZ.NS ([3]; dose 0.40 uM) was −0.159 log2 fold change. For the same molecule, the “Z.LYZ.NS (standard z score)” value ([3]; dose 0.40 uM) was −1.385, the Dose.FC.LYZ.NS ([3]; dose 2.00 uM) was −0.211 log2 fold change and the “Z.LYZ.NS (standard z score)” value ([3]; dose 2.00 uM) was −1.835. For the same molecule, the Dose.FC.LYZ.NS ([3]; dose 10.00 uM) was −0.220 log2 fold change and the “Z.LYZ.NS (standard z score)” value ([3]; dose 10.00 uM) was −1.917.
